Results: patent publication US7037644B1, “Means and methods for monitoring non-nucleoside reverse transcriptase inhibitor antiretroviral therapy and guiding therapeutic decisions in the treatment of HIV/AIDS” (ViroLogic, Inc., priority 1998, dated 2006)

Assays:
Test in all cases: Phenotypic susceptibility assay (patient RTV)
Format in all cases: cell-based, HIV-1
[1] = system: RTV-300, patient 97-300 (RT K32N, M184V, Y188L); details: patient RTV pool
Procedure: (§1) The resistance test vectors containing a functional luciferase gene cassette were constructed and host cells were transfected with the resistance test vector DNA. The resistant test vectors contained patient-derived reverse transcriptase and protease sequences that were either susceptible or resistant to the antiretroviral agents, such as nucleoside reverse transcriptase inhibitors, non-nucleoside reverse transcriptase inhibitors and protease inhibitors. […] The IC50 values were determined by plotting percent drug inhibition vs. log10 drug concentration.
(§2) Host cells were seeded in 10-cm-diameter dishes and were transfected several days after plating with resistance test vector plasmid DNA and the envelope expression vector. […] HIV capsid protein (p24) levels in the harvested cell culture media were determined by an EIA method as described by the manufacturer (SIAC; Frederick, Md.). […] The inhibitory effect of the drug was determined using the following equation: % luciferase inhibition=1−(RLUluc [drug]÷RLUluc)×100 where RLUluc [drug] is the relative light unit of luciferase activity in infected cells in the presence of drug and RLUluc is the Relative Light Unit of luciferase activity in infected cells in the absence of drug. […]

[2] = system: RTV-209, patient 97-209 (RT E138A, Y188L); details: patient RTV pool
Procedure: as §1, §2

[3] = system: RTV-652, patient 98-652 (RT V108I); details: patient RTV pool; below 1 = increased susceptibility
Procedure: as §1, §2

[4] = system: RTV-955, patient 98-955 (RT K101E, K103N, Y181C, G190A mixtures); details: patient RTV pool
Procedure: as §1, §2

Row | SMILES | decrease in susceptibility (fold, IC50) [1] | decrease in susceptibility (fold, IC50) [2] | change in susceptibility (fold, IC50) [3] [fold] | decrease in susceptibility (fold, IC50) [4] [fold]
1 | CC(C)Nc1cccnc1N1CCN(C(=O)c2cc3cc(NS(C)(=O)=O)ccc3[nH]2)CC1 [delavirdine] | 25 fold | 75 fold | 0.97 | 4
2 | Cc1ccnc2c1NC(=O)c1cccnc1N2C1CC1 [nevirapine] | greater than 800 fold | greater than 800 fold | 5 | 530
